Source: PubChem BioAssay AID248 (DTP/NCI, 2004)
“And” between values parts separate entries of the source, which are not always exact repeats. Equal values may be shown once. Toxic doses and inconclusive results are not listed. Rule as the data show it: active = T/C of 150% or more; inactive = T/C below 125%.

System: L1210 leukemia ip in BDF1 mice, survival T/C
Assay: NCI In Vivo Anticancer Drug Screen. Data for tumor model L1210 Leukemia (intraperitoneal) in B6D2F1 (BDF1) mice
Conditions: endpoint: mean survival time, higher = longer survival
Method in brief: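 Transplanted-tumor mice were given test agent; controls received vehicle only. Survival readings from the two groups were divided (treated over control).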

[1] = dose: 100.0 mg/kg/injection, schedule: Q01DX001 (ip), vehicle: Klucel (hydroxypropylcellulose) (HPC)
[2] = dose: 100.0 mg/kg/injection, schedule: Q04DX003 (ip), vehicle: Klucel (hydroxypropylcellulose) (HPC)
[3] = dose: 200.0 mg/kg/injection, schedule: Q01DX001 (ip), vehicle: Klucel (hydroxypropylcellulose) (HPC)
[4] = dose: 200.0 mg/kg/injection, schedule: Q04DX003 (ip), vehicle: Klucel (hydroxypropylcellulose) (HPC)
[5] = dose: 400.0 mg/kg/injection, schedule: Q01DX001 (ip), vehicle: Klucel (hydroxypropylcellulose) (HPC)
[6] = dose: 400.0 mg/kg/injection, schedule: Q04DX003 (ip), vehicle: Klucel (hydroxypropylcellulose) (HPC)
[7] = dose: 100.0 mg/kg/injection, schedule: Q01DX001 (ip), vehicle: saline
[8] = dose: 200.0 mg/kg/injection, schedule: Q01DX001 (ip), vehicle: saline
[9] = dose: 400.0 mg/kg/injection, schedule: Q01DX001 (ip), vehicle: saline
[10] = dose: 100.0 mg/kg/injection, schedule: Q01DX009 (ip), vehicle: saline
[11] = dose: 200.0 mg/kg/injection, schedule: Q01DX009 (ip), vehicle: saline
[12] = dose: 100.0 mg/kg/injection, schedule: Q01DX001 (ip), vehicle: carboxymethylcellulose (CMC)
[13] = dose: 200.0 mg/kg/injection, schedule: Q01DX001 (ip), vehicle: carboxymethylcellulose (CMC)
[14] = dose: 400.0 mg/kg/injection, schedule: Q01DX001 (ip), vehicle: carboxymethylcellulose (CMC)
[15] = dose: 75.0 mg/kg/injection, schedule: Q01DX001 (ip), vehicle: carboxymethylcellulose (CMC)
[16] = dose: 150.0 mg/kg/injection, schedule: Q01DX001 (ip), vehicle: carboxymethylcellulose (CMC)

Measured: T/C

COc1cc(C)c2c(c1)C(=O)OC2=O
inactive: [1] 105 % of control | [2] 100 % of control | [3] 108 % of control | [4] 103 % of control | [5] 111 % of control | [6] 97 % of control

O=C1OC(CO)C(O)C1O (configuration not stated)
inactive: [7] 101 % of control | [8] 95 % of control | [9] 91 % of control

CC(C)Cc1ccc(C[N+]23CN4CN(CN(C4)C2)C3)cc1
inactive: dose: 75.0 mg/kg/injection, schedule: Q01DX001 (ip), vehicle: saline 100 % of control | dose: 150.0 mg/kg/injection, schedule: Q01DX001 (ip), vehicle: saline 96 % of control | dose: 300.0 mg/kg/injection, schedule: Q01DX001 (ip), vehicle: saline 102 % of control

O=C(c1ccccc1)c1ccco1
inactive: dose: 50.0 mg/kg/injection, schedule: Q01DX009 (ip), vehicle: saline 102 % of control | [10] 91 % of control | [11] 93 % of control

CC(N)C(=O)NC(C(=O)O)C(C)C (configuration not stated)
inactive: dose: 100.0 mg/kg/injection, schedule: Q04DX002 (ip), vehicle: saline 101 % of control and 98 % of control | dose: 200.0 mg/kg/injection, schedule: Q04DX002 (ip), vehicle: saline 101 % of control and 95 % of control | dose: 400.0 mg/kg/injection, schedule: Q04DX002 (ip), vehicle: saline 96 % of control and 95 % of control

O=C(Nc1ccc(Cl)c(Cl)c1)OCCN(c1ccccc1)c1ccccc1
inactive: [12] 88 % of control | [13] 97 % of control | [14] 92 % of control

C1=NOC2c3ccc4ccccc4c3CCC12 (configuration not stated)
inactive: dose: 100.0 mg/kg/injection, schedule: Q01DX009 (ip), vehicle: Klucel (hydroxypropylcellulose) (HPC) 95 % of control | dose: 200.0 mg/kg/injection, schedule: Q01DX009 (ip), vehicle: Klucel (hydroxypropylcellulose) (HPC) 93 % of control | dose: 400.0 mg/kg/injection, schedule: Q01DX009 (ip), vehicle: Klucel (hydroxypropylcellulose) (HPC) 93 % of control

S=C(NCCS)Nc1ccccc1
inactive: [2] 98 % of control | [4] 105 % of control | [6] 99 % of control

COc1ccc2c3c1OC1C(OC(C)=O)=CCC4C(C2)N(C)CCC314 (configuration not stated)
inactive: [7] 93 % of control

c1ccc([B-](c2ccccc2)([C+]2CCCCC2)N2CCCCC2)cc1
inactive: [15] 104 % of control | [16] 100 % of control

CCCCCCCCCCCC[N+](CCCCCCCCCCCC)=C1SCCS1
inactive: dose: 1.56 mg/kg/injection, schedule: Q04DX003 (ip), vehicle: carboxymethylcellulose (CMC) 96 % of control | dose: 3.13 mg/kg/injection, schedule: Q04DX003 (ip), vehicle: carboxymethylcellulose (CMC) 104 % of control | dose: 6.25 mg/kg/injection, schedule: Q04DX003 (ip), vehicle: carboxymethylcellulose (CMC) 110 % of control

CC(C(=O)O)C(N)C(=O)O (configuration not stated)
inactive: dose: 75.0 mg/kg/injection, schedule: Q04DX003 (ip), vehicle: saline 102 % of control | [1] 88 % of control | [7] 98 % of control | dose: 150.0 mg/kg/injection, schedule: Q04DX003 (ip), vehicle: saline 102 % of control | [3] 97 % of control | [8] 96 % of control | dose: 300.0 mg/kg/injection, schedule: Q04DX003 (ip), vehicle: saline 102 % of control | [5] 92 % of control | [9] 95 % of control

CCOC(=S)c1ccc(S(=O)(=O)Nc2ccc(OCC)cc2)cc1
inactive: [1] 95 % of control | [3] 98 % of control | [5] 95 % of control

O=[N+]([O-])c1ccc(OCCCBr)c(Cl)c1
inactive: [10] 103 % of control | [11] 108 % of control | dose: 400.0 mg/kg/injection, schedule: Q01DX009 (ip), vehicle: saline 120 % of control

Cc1ccc(NC(=S)Nc2cccc(C(F)(F)F)c2)cc1C
inactive: dose: 87.5 mg/kg/injection, schedule: Q01DX009 (ip), vehicle: Klucel (hydroxypropylcellulose) (HPC) 101 % of control | dose: 175.0 mg/kg/injection, schedule: Q01DX009 (ip), vehicle: Klucel (hydroxypropylcellulose) (HPC) 98 % of control | dose: 350.0 mg/kg/injection, schedule: Q01DX009 (ip), vehicle: Klucel (hydroxypropylcellulose) (HPC) 102 % of control

Cc1ccc(S(=O)(=O)N/N=C2/C(=N/NS(=O)(=O)c3ccc(C)cc3)c3cccc4cccc2c34)cc1
inactive: [15] 91 % of control | [16] 91 % of control | dose: 300.0 mg/kg/injection, schedule: Q01DX001 (ip), vehicle: carboxymethylcellulose (CMC) 88 % of control

CN(C)N=Nc1ccc(C#N)cc1
inactive: dose: 50.0 mg/kg/injection, schedule: Q01DX001 (ip), vehicle: saline with Tween-80 105 % of control | dose: 50.0 mg/kg/injection, schedule: Q01DX009 (ip), vehicle: saline with Tween-80 96 % of control | dose: 50.0 mg/kg/injection, schedule: Q04DX003 (ip), vehicle: saline with Tween-80 101 % of control | dose: 100.0 mg/kg/injection, schedule: Q01DX001 (ip), vehicle: saline with Tween-80 106 % of control | dose: 100.0 mg/kg/injection, schedule: Q01DX009 (ip), vehicle: saline with Tween-80 91 % of control | dose: 100.0 mg/kg/injection, schedule: Q04DX003 (ip), vehicle: saline with Tween-80 105 % of control | dose: 200.0 mg/kg/injection, schedule: Q01DX001 (ip), vehicle: saline with Tween-80 118 % of control | dose: 200.0 mg/kg/injection, schedule: Q01DX009 (ip), vehicle: saline with Tween-80 100 % of control | dose: 200.0 mg/kg/injection, schedule: Q04DX003 (ip), vehicle: saline with Tween-80 97 % of control | dose: 400.0 mg/kg/injection, schedule: Q01DX001 (ip), vehicle: saline with Tween-80 122 % of control | dose: 400.0 mg/kg/injection, schedule: Q01DX009 (ip), vehicle: saline with Tween-80 102 % of control | dose: 400.0 mg/kg/injection, schedule: Q04DX003 (ip), vehicle: saline with Tween-80 108 % of control

COc1ccc(C2NC(=O)CCC2[N+](=O)[O-])cc1OC (configuration not stated)
inactive: dose: 100.0 mg/kg/injection, schedule: Q04DX002 (ip), vehicle: saline with Tween-80 91 % of control | dose: 200.0 mg/kg/injection, schedule: Q04DX002 (ip), vehicle: saline with Tween-80 91 % of control | dose: 400.0 mg/kg/injection, schedule: Q04DX002 (ip), vehicle: saline with Tween-80 94 % of control

CCO/C(C)=C(/C#N)c1ccc(Cl)cc1
inactive: dose: 12.5 mg/kg/injection, schedule: Q01DX009 (ip), vehicle: gum acacia 104 % of control | dose: 25.0 mg/kg/injection, schedule: Q01DX009 (ip), vehicle: gum acacia 104 % of control | dose: 50.0 mg/kg/injection, schedule: Q01DX009 (ip), vehicle: gum acacia 102 % of control

COCCCn1nnc2ccccc2c1=O
inactive: dose: 100.0 mg/kg/injection, schedule: Q04DX003 (ip), vehicle: saline 98 % of control | dose: 200.0 mg/kg/injection, schedule: Q04DX003 (ip), vehicle: saline 93 % of control | dose: 400.0 mg/kg/injection, schedule: Q04DX003 (ip), vehicle: saline 100 % of control

Cc1cccc(NC(=O)N2CCN(c3ccccc3)CC2)c1
inactive: dose: 50.0 mg/kg/injection, schedule: Q01DX001 (ip), vehicle: carboxymethylcellulose (CMC) 106 % of control | [12] 101 % of control | [13] 101 % of control | [14] 104 % of control

CCOC(=O)CCc1c(C)c2ccc(O)cc2oc1=O
inactive: [7] 98 % of control | [8] 104 % of control | [9] 94 % of control
